Earlier results, collected in patent US12274727B2 (Bazelet Health Systems, Inc., priority 2021, dated 2025).

Experiments:
[1] = not given; remark: listed apart in the source
[2] = with piperine, chronic or single dose regimen
[3] = not given; remark: listed apart in the source
[4] = room temperature
[5] = patch testing in Europe
[6] = not given; remark: listed apart in the source
[7] = after one single oral administration

In the case of `C=C(C)[C@@H]1CCC(C)=C[C@H]1c1c(O)cc(CCCCC)cc1O` [CBD, Cannabidiol], the “formation of THC, yield” value (artificial gastric fluid without pepsin, first study) is listed as 2.9%, the “conversion into THC (both 8 and 9 isomers)” value (simulated gastric fluid, another study) is listed as “about 49%” and the sublingually absorbed ([1]; emulsified (micronized) CBD products) is listed as “up to 35%”. The oral bioavailability ([1]; oral, humans) was “approximately 6%”, the “bioavailability from smoked product” value ([1]; smoked) was “around 31%” and the sublingual bioavailability ([1]; sublingual) was 13-19%. For the same compound, the transdermal absorption ([1]; transdermal) was “about 10%”, the “increase in oral bioavailability compared to control group without piperine” value [2] was roughly 2.5 fold and the “degradation by light, average values” ([3]; after 30 days) was “up to 15%”. The “maximum degradation, average values” ([3]; stored at 37° C. for 30 days) was “up to 20%”.
In the case of `CC(C)=CCC1C(=O)C(C(=O)CC(C)C)=C(O)C(O)(CC=C(C)C)C1=O` (stereo not drawn) [Humulone, humulone], the time to degradation [4] is listed as “about 12 weeks”.
For `C=CC(C)(O)CCC=C(C)C` (stereo not drawn) [Linalool], the “people found to be allergic to the oxidized form” value [5] is listed as 7%.
In the case of `C=C(C)[C@@H]1CCC(C)=C[C@H]1c1c(O)cc(CCCCC)cc1O` [pharmaceutical CBD], the “patients reporting similar AEs” value ([6]; another trial) is listed as 86% and the “patients with AEs reported” value ([6]; randomized controlled trial in treatment resistant epilepsy) is listed as 93%.
For `C=C1CC/C=C(\C)CC[C@@H]2[C@@H]1CC2(C)C` [β-caryophyllene], the Tmax [7] is given as greater than 1 h.
